Test results reported in patent publication US20240285525A1, “METHODS AND MATERIALS FOR TREATING CANCER” (The Johns Hopkins University, priority 2021, published 2024).

Experiments:
[1] = tested on: GL261 cells; assay: Inhibition of endocytosis (nanotube uptake, flow cytometry); type: cell-based, mouse; settings: inhibitor 30 min then nanotubes 3 hours, 30 μg/mL DMA, 500 μg/mL fucoidan, 10 μM LatB
Protocol: 200,000 GL261 cells were plated per well in 12-well plates and incubated at 37° C. and 5% CO2 overnight. The following day, media was replaced with fresh media, and inhibitor stock solutions were diluted and delivered to the cells at targeted concentrations: 1.25 μg/mL cytochalasin D (CytD), 10 μM latrunculin B (LatB), 15 μg/mL nocodazole, 5 μg/mL fillipin, 2.5 μg/mL nystatin, 1.32 mg/mL methyl-β-cyclodextrin (MPCD), 2.5 μg/mL chlorpromazine (CPZ), 12.5 μg/mL dynasore, 0.2 μg/mL pertussis toxin (PTX), 2 μg/mL cholera toxin (CTX), 30 μg/mL 5-(N,N-dimethyl)-amiloride hydrochloride (DMA), and 500 μg/mL fucoidan. Cells with no inhibitor were used as positive controls. Plates were gently shaken by hand to ensure even distribution of inhibitors, and placed in the incubator for 30 minutes. […] Cells were washed twice with 1 mL PBS, trypsin-EDTA at 37° C. was added to each well, the contents of each well were individually mixed via up and down pipetting and transferred to 1.5 mL centrifuge tubes. Cells were washed twice with PBS, reconstituted in 500 μL PBS and transferred to flow cytometry tubes. 5 μL of 10 μg/mL propidium iodide (PI) solution was added to each tube and vortexed. The cells were run on a BD FACSCanto flow cytometer and were examined for PI and HEX fluorescence via excitation at 488 nm with a 585/42 filter. Cells were gated by PI staining to select for live cells, and by scattering (FSC-A and SSC-A) to select for single cells. To evaluate cytotoxicity of inhibitors, 10,000 GL261 cells were plated in 96-well plates and incubated overnight in a 37° C. 5% C02 incubator. The next day, media was replaced with fresh formulated media, and inhibitor stock solutions were diluted and delivered to the cells at concentrations mentioned above. Plates were gently shaken by hand and placed in the incubator for 3 hours. Cell viability was measured using CellTiter-Glo 2.0 assay (Promega, Madison, WI) following the manufacturer's protocol. Luminescence was recorded using a Synergy H1 microplate reader (Biotek, Winooski, VT), and cell viability was normalized to untreated cells.

[2] = tested on: GL261 cells; assay: Cell viability (CellTiter-Glo 2.0); type: cell-based, mouse; settings: 12 hours + 36 hours at 37° C.; NT 5-6.4 μM ssDNA-amphiphiles, DOX 5 μg/mL, NT-DOX same concentrations; normalized to untreated
Protocol: The samples were incubated with cells for 12 hours at 37° C., followed by a single wash with PBS. 100 μL of fresh media was added, and cells were incubated at 37° C. for an additional 36 hours. […] The luminescence signal of each well was measured, and the luminescence of each group was normalized to the luminescence of the untreated cells.

[3] = Histopathological analysis of organs (H&E); type: in vivo, mouse
Description: 8 week old mice were used for this study. […] The photon counts within each ROI were quantified.
Following perfusion and fixation with 10% neutral buffered formalin, tissues were processed into paraffin blocks using standard histology techniques, sectioned at a thickness of […], stained with hematoxylin and eosin (H&E), and evaluated using light microscopy.

[4] = tested on: GL261-Luc orthotopic tumor; assay: Intracranial delivery via CED in orthotopic GL261-Luc mouse model
[5] = tested on: M2 macrophages from primary CD14+human monocytes; assay: Macrophage gene expression via RT-qPCR; type: cell-based; settings: 1 μM TS free or in nanotubes, or empty nanotubes; compared to untreated M2-macrophages
Protocol: Freshly isolated primary CD14+human monocytes were plated at a density of 500,000 cells/well in the presence of 50 ng/mL of M-CSF (macrophage colony stimulating factor) to differentiate them to MO-macrophages. The media were renewed with the same composition (DMEM+10% FBS+1% Penicillin-Streptomycin+50 ng/mL M-CSF) every 2-3 days until complete differentiation. The macrophages were treated with 20 ng/mL of IL-4 for 3 days differentiate them to an M2-phenotype.
Cells were detached using 1× Tryp1E Express Enzyme (ThermoFisher Scientific) and washed with PBS. TRIzol (ThermoFisher Scientific) was added to the cells followed by absolute ethanol. mRNA was collected in Zymo-Spin IC columns (Zymo Research) by centrifuging the cell solution in the spin columns. The mRNA was washed and resuspend in RNAse and DNAse free water. After evaluating the mRNA concentration, the cDNA reaction mixture was prepared by adding the mRNA to nuclease-free water, iScript Reverse Transcriptase (Bio-Rad) and 5× iScript Reaction Mix. The cDNA reaction was performed using TurboCycler Lite Thermal Cycler (Blue-Ray Biotech). The cDNA was then aliquoted and added to a mixture of primers for the genes 1112b, 118, Nos2, 1110, Tgfb1 and Fizz1 respectively along with iTaq™ Universal SYBR® Green Supermix (Bio-Rad). […] Data was analysed using the ΔΔCt method. […]

CN(C)c1nc(N)c(C(=O)N=C(N)N)nc1Cl.Cl [DMA, 5-(N,N-dimethyl)-amiloride hydrochloride]
inhibition of cellular uptake of the nanotubes [1]: 44%

COc1cccc2c1C(=O)c1c(O)c3c(c(O)c1C2=O)C[C@@](O)(C(=O)CO)C[C@@H]3O[C@H]1C[C@H](N)[C@H](O)[C@H](C)O1.Cl [DOX, Doxorubicin-hydrogen chloride]
viability of GL261 cells [2]: 47±6%
histology of liver [3]: multifocal areas of hepatocyte degeneration and necrosis
histology of spleen [3]: diffuse, moderate to marked depletion of the spleen white pulp associated with zonal lymphocytic apoptosis and necrosis
histology of lung, kidney and heart tissues ([3]; compared to the PBS control): no significant findings
body weight gained ([4]; after 28 days): 6%
decrease in tumor signal (bioluminescence) ([4]; day 28, pump 70 μM DOX (0.2 mg DOX/Kg mouse), about 14 days, 0.25 μL/hour): 80%
median survival time ([4]; n=9-10 per group, NT 95 μM ssDNA-amphiphiles, DOX 70 μM): 34.5 days

C/C1=C/C(=O)O[C@@H]2C[C@@H](CC[C@H](C)/C=C\CC1)O[C@@](O)([C@@H]1CSC(=O)N1)C2 [LatB, latrunculin B]
inhibition of cellular uptake of the nanotubes [1]: 20%

C=C(NC(=O)C(=C)NC(=O)c1csc(C2=N[C@@H]3c4csc(n4)[C@H]4NC(=O)c5csc(n5)[C@H]([C@](C)(O)[C@@H](C)O)NC(=O)[C@H]5CSC(=N5)/C(=C/C)NC(=O)[C@H]([C@@H](C)O)NC(=O)c5csc(n5)[C@]3(CC2)NC(=O)[C@H](C)NC(=O)C(=C)NC(=O)[C@H](C)NC(=O)[C@H]([C@@H](C)CC)N[C@@H]2C=Cc3c([C@H](C)O)cc(nc3[C@H]2O)C(=O)O[C@@H]4C)n1)C(N)=O [free TS, thiostrepton]
expression of genes associated with M2-like macrophages (ΔΔCt) [5]: successful at downregulating genes associated with M2-like macrophages
expression of genes of M1-like macrophages (ΔΔCt) [5]: upregulating genes of M1-like macrophages

fucoidan
inhibition of cellular uptake of the nanotubes [1]: 57%
